Data: ChEMBL document CHEMBL4765322, “Novel curcumin derivatives as P-glycoprotein inhibitors: Molecular modeling, synthesis and sensitization of multidrug resistant cells to doxorubicin” (Eur J Med Chem, 2020)

How the values were obtained:
[1] = Cytotoxicity against human K562/4 cells assessed as reduction in cell viability measured after 72 hrs by MTT assay; format: cell-based; details: K562/4, 72 h
[2] = Inhibition of P-gp mediated multidrug resistance in human K562/4 cells assessed as sensitization of cells to doxorubicin by measuring reduction in cell viability preincubated with compound for 30 mins prior to 1 uM doxorubicin addition and measured after 72 hrs by MTT assay; format: cell-based
K562/4 = details: Homo sapiens
Description: Inhibition of P-gp-mediated doxorubicin efflux in human K562/4 cells assessed as minimal concentration required for the effect by flow cytometric analysis

| Compound | IC50 [1] | IC50 [2] | MED (K562/4) |
| --- | --- | --- | --- |
| COc1cc(/C=C/c2cc(/C=C/c3ccc(O)c(OC)c3)n(-c3ccc(C(=O)OC(C)C)cc3)n2)ccc1O | 12.5 µM |  |  |
| CCOC(=O)c1ccc(-n2nc(/C=C/c3ccc(OC)c(OC)c3)cc2/C=C/c2ccc(OC)c(OC)c2)cc1F | > 50 µM | 0.2 µM |  |
| COc1ccc(/C=C/c2cc(/C=C/c3ccc(OC)c(OC)c3)n(-c3ccc(C(=O)N4CCCC4)cc3)n2)cc1OC | > 50 µM | 0.5 µM |  |
| COC(=O)c1ccc(-n2nc(/C=C/c3ccc(O)c(OC)c3)cc2/C=C/c2ccc(O)c(OC)c2)cc1 | 9.6 µM |  |  |
| CCNC(=S)c1ccc(-n2nc(/C=C/c3ccc(OC)c(OC)c3)cc2/C=C/c2ccc(OC)c(OC)c2)cc1 | > 50 µM | 0.5 µM |  |
| COc1cc2c(cc1OC)CN(CCc1ccc(NC(=O)c3cc(OC)c(OC)cc3NC(=O)c3cnc4ccccc4c3)cc1)CC2 |  |  | 1 µM |
| CCOC(=O)c1ccc(-n2nc(/C=C/c3ccc(OC)c(OC)c3)cc2/C=C/c2ccc(OC)c(OC)c2)cc1 | > 50 µM | 0.8 µM |  |
| COc1cc(/C=C/c2cc(/C=C/c3ccc(O)c(OC)c3)n(-c3ccc(C(=O)OC/C=C(\C)CC/C=C(\C)CCC=C(C)C)cc3)n2)ccc1O | > 25 µM |  |  |
| CCNC(=O)c1ccc(-n2nc(/C=C/c3ccc(O)c(OC)c3)cc2/C=C/c2ccc(O)c(OC)c2)cc1 | 4.3 µM |  |  |
| CCOC(=O)c1ccc(-n2nc(/C=C/c3ccc(O)cc3)cc2/C=C/c2ccc(O)cc2)cc1F | 10.3 µM |  |  |
| COc1cc(/C=C/c2cc(/C=C/c3ccc(O)c(OC)c3)n(-c3ccc(C(=O)OCC(F)(F)F)cc3)n2)ccc1O | > 25 µM |  |  |
| COc1cc(/C=C/c2cc(/C=C/c3ccc(O)c(OC)c3)n(-c3ccc(F)cc3)n2)ccc1O | 10.8 µM |  |  |
| CCNS(=O)(=O)c1ccc(-n2nc(/C=C/c3ccc(OC)c(OC)c3)cc2/C=C/c2ccc(OC)c(OC)c2)cc1 | > 50 µM | 0.5 µM |  |
| CCNC(=O)c1ccc(-n2nc(/C=C/c3ccc(OC)c(OC)c3)cc2/C=C/c2ccc(OC)c(OC)c2)cc1 | > 50 µM | 0.2 µM |  |
| CCOC(=O)c1ccc(-n2nc(/C=C/c3ccc(O)c(OC)c3)cc2/C=C/c2ccc(O)c(OC)c2)cc1 | 10.2 µM |  |  |
| CCOC(=O)c1ccc(-n2nc(/C=C/c3ccc(O)c(OC)c3)cc2/C=C/c2ccc(O)c(OC)c2)cc1F | 5.4 µM |  |  |
| COc1cc(/C=C/c2cc(/C=C/c3ccc(O)c(OC)c3)n(-c3ccc(C(=O)OCC(C)C)cc3)n2)ccc1O | 6.4 µM |  |  |
| COc1cc(/C=C/c2cc(/C=C/c3ccc(O)c(OC)c3)n(-c3ccc(C(=O)OC(C)(C)C)cc3)n2)ccc1O | > 25 µM |  |  |
| COc1ccc(/C=C/c2cc(/C=C/c3ccc(OC)c(OC)c3)n(-c3ccc(C(=O)NCC(C)C)cc3)n2)cc1OC | > 50 µM | 0.4 µM |  |
| COc1cc(/C=C/c2cc(/C=C/c3ccc(O)c(OC)c3)n(-c3ccc(C(=O)OC/C=C(\C)CCC=C(C)C)cc3)n2)ccc1O | > 25 µM |  |  |
| CCNC(=O)c1ccc(-n2nc(/C=C/c3ccc4c(c3)OCO4)cc2/C=C/c2ccc3c(c2)OCO3)cc1 | > 50 µM |  |  |
| CCOC(=O)c1ccc(-n2nc(/C=C/c3ccc(OC)c(OC)c3)cc2/C=C/c2ccc(OC)c(OC)c2)cc1[N+](=O)[O-] | > 50 µM |  |  |
| CCOC(=O)c1ccc(-n2nc(/C=C/c3ccc(O)cc3)cc2/C=C/c2ccc(O)cc2)cc1 | 11.1 µM |  |  |
